Measurements from patent US20120164148A1, “Compositions Containing JARID1B Inhibitors and Methods for Treating Cancer” (The Wistar Institute, priority 2009, published 2012).

What was measured:
[1] = test system: WM3734^JARID1Bprom-EGFP cells; assay: Drug treatment of WM3734 JARID1Bprom-EGFP cells, flow cytometry of J/EGFP+ subpopulation and viable cells; type: cell-based, human; details: 72 hours of treatment, clinically relevant doses; threshold set at 5% (DMSO control)
Experimental: Left panels, Relative enrichment of the J/EGFP+subpopulation after 72 hours of treatment with a BRAF inhibitor (PLX4720), bortezomib (VEL), temozolomide (TMZ), or salinomycin (SAL) as determined by flow cytometry. The threshold (dotted line) for the J/EGFP+ subpopulation was set at 5% (DMSO control) based on JARID1B expression studies. Depicted box plots represent three independently performed experiments with flow cytometric determination of J/EGFP expression beyond the indicated threshold. Right panels, The number of viable cells within the total population was decreasing during drug treatment.
Flow Cytometry and Fluorescence Activated Cell Sorting. For detection of JARID1B promoter-driven EGFP signals, adherent cells were harvested with 0.05% trypsin and spheres were dissociated as described herein. Dead cells were excluded by staining for 7-AAD. After sorting, aliquots were microscopically checked and were cultured for a short-time to exclude disproportional enrichment of debris or apoptotic cells. Fluorescence-activated cell sorting was carried out using a CYTOMATION MOFLO cytometer (DakoCytomation). Flow cytometric detection of surface markers was done according to standard procedures. Briefly, cells were fixed in 4% paraformaldehyde (PFA) in PBS for 10 minutes and then were blocked with 1% BSA in PBS for 10 minutes at room temperature. Primary and secondary antibodies were incubated for 10 minutes at room temperature. Before and after antibody incubations, cells were washed three times with 1% BSA in PBS. Samples were analyzed using an EPICS XL instrument (Beckman-Coulter). Monoclonal antibodies were follows: anti-CD20 (APC-conjugated; BD PHARMINGEN), anti-CD133 (PE; Miltenyi Biotech), anti-p75/NGFR (APC; Miltenyi Biotech), and anti-MCAM (FITC; R&D Systems). Isotype-matched mouse APC- (BD PHARMINGEN), PE- (R&D Systems), or FITC-conjugated (R&D Systems) antibodies were used as controls. Flow cytometric isolation of side population cells was performed according to established methods (Goodell, et al. (1996) J. Exp. Med. 183:1797-1806). […]

JARID1B = assay: Validation of JARID1B shRNA knockdown clones (RNA, protein, BrdU, MTS, cell counts); type: cell-based, human; details: out of five shRNA clones
Source text: Melanoma Samples and Cell Culture. Fresh human melanoma tissues and cells were obtained according to standard procedures, isolated and maintained in 2% fetal bovine serum (FBS)-substituted melanoma medium (‘Tu2%’) Smalley, et al. (2005) Am. J. Pathol. 166:1541-1554; Satyamoorthy, et al. (1997) Melanoma Res. 7 Suppl 2:S35-42). According to the isolation of neural stem cells and cancer stem cells from brain tumors by culturing of neurospheres (Yuan, et al. (2004) Oncogene 23:9392-9400; Galli, et al. (2004) Cancer Res. 64:7011-7021), melanoma spheres were propagated in mouse embryonic fibroblast (MEF)-conditioned human embryonic stem cell medium (hESCM) according to conventional methods (Fang, et al. (2005) supra). Before use, MEF-conditioned hESCM was mixed with fresh hESCM medium at a 7:3 ratio (‘hESCM4’) and basic fibroblast growth factor was added at 4 ng/ml. Depending on the cell line, sphere formation could be observed 2-6 weeks after starting culture in hESCM4. Spheres were dissociated by collagenase I/IV (Sigma, St. Louis, Mo.) and mechanical treatment, i.e., 200-250 units per ml DMEM (Cellgro) at 37° C. for 10 minutes plus subsequent pipetting. […]
Given the paradox of an increased in vitro self-renewal capacity without any effect on in vivo tumor initiation, it was determined whether JARID1B still could be important for the continuous maintenance of melanomas. […]

WM3734 melanomas = assay: Bortezomib treatment of xenotransplanted WM3734 melanomas with JARID1B knockdown; type: in vivo, NOD/LtSscidIL2Rγ^null mice; details: 20 μg bortezomib intraperitoneally on days 20, 22, 25, 27; JARID1B knocked-down tumors vs sh scrambled control; p=0.024 (MANOVA)
Experimental: Xenotransplanted WM3734 melanomas (mean tumor volume ˜200 mm^3) were treated with 20 μg bortezomib (dissolved in PBS and injected intraperitoneally) on days 20, 22, 25, and 27 after xenotransplantation.
Xenotransplantation Assays and Metastasis Model. To address continuous tumor maintenance in vivo, serial xenotransplantation assays with JARID1B knockdown vs. control cells were performed in NOD/LtSscidIL2Rγ^null mice. For every passage, 10^4 cells in MATRIGEL®/Tu2% at a 1:1 dilution were injected subcutaneously in mice (5 mice per sample). One passage included: injection, tumor growth, tumor dissection, cell isolation (mechanical and collagenase I/IV treatment) and purification. Melanoma cell purification was done by three-day-puromycin treatment confirmed by MCAM flow cytometry. Verification of knockdown was carried out by QRT-PCR. […] Tumor growth was measured weekly using a caliper and was terminated when the first tumor of the series reached 1000 mm^3. Metastatic progression was measured in a spontaneous metastasis model. […] Formalin-fixed, paraffin-embedded (FFPE) sections of whole lungs were H&E-stained and the numbers of macro- and micrometastases were microscopically determined (20× magnification). Two representative frontal sections per lung were analyzed. […]

| Compound | relative enrichment for the J/EGFP+ subpopulation [1] | knockdown phenotype (JARID1B) | tumor volume (WM3734 melanomas) |
| --- | --- | --- | --- |
| CCCS(=O)(=O)Nc1ccc(F)c(C(=O)c2c[nH]c3ncc(Cl)cc23)c1F [PLX7420] | relative enrichment for the J/EGFP+ subpopulation | – | – |
| sh JARID1B—58: shRNA clone from Sigma targeting the 3′UTR of JARID1B, SEQ ID NO:15 (CCGGCCCACCAATTTGGAAGGCATTCTCGAGAATGCCTTCCAAATTGGTGGGTTTTT) | – | significant knockdown phenotypes | – |
| CC(C)C[C@H](NC(=O)[C@H](Cc1ccccc1)NC(=O)c1cnccn1)B(O)O [bortezomib] | relative enrichment for the J/EGFP+ subpopulation | – | significantly lower tumor volume |
| JARID1B—62: shRNA clone from Sigma targeting the coding sequence of JARID1B, SEQ ID NO:14 (CCGGCGAGATGGAATTAACAGTCTTCTCGAGAAGACTGTTAATTCCATCTCGTTTTT) | – | significant knockdown phenotypes | – |
| CC[C@@H](C(=O)[C@@H](C)[C@@H](O)[C@H](C)[C@@H]1O[C@@H]([C@@H](CC)C(=O)O)CC[C@@H]1C)[C@H]1O[C@]2(C=C[C@@H](O)[C@]3(CC[C@@](C)([C@H]4CC[C@](O)(CC)[C@H](C)O4)O3)O2)[C@H](C)C[C@@H]1C [salinomycin] | relative enrichment for the J/EGFP+ subpopulation | – | – |
